Literature values in patent US12497429B2, “Saponin-based vaccine adjuvants” (priority 2018, dated 2025).

Details: compared to vaccine alone

monophosphoryl lipid A [MPL]
boost of serum Ab titers: 10-20 fold
